From PMC7496920, “Structure‐Activity Relationship of Phenylpyrazolones against Trypanosoma cruzi” (Chemmedchem, 2020)

Columns and labels:
[1] = test system: intracellular amastigotes of T. cruzi (Tulahuen strain); test: Trypanosoma cruzi in vitro susceptibility assay on intracellular amastigotes (β‐galactosidase strain); type: cell-based; details: for IC50: Trypanosoma cruzi, TULAHUEN, MRC-5 SV2, 168 h, intracellular amastigotes, Tulahuen CL2 β‐galactosidase strain in MRC‐5SV2 cells, 7 d, SD ±0.2, n>=2, read-out: pIC50 T. cruzi (converted); for SI (selectivity index): cytotoxicity (IC50, MRC‐5) divided by T. cruzi activity (IC50)
Experimental: Trypanosoma cruzi in vitro assay: Bloodstream trypomastigotes (BT) of the Y strain of T. cruzi were obtained by cardiac puncture of infected Swiss Webster mice on the parasitaemia peak.12 For the standard in vitro susceptibility assay on intracellular amastigotes, T. cruzi Tulahuen CL2, β‐galactosidase strain (DTU VI, nifurtimox‐sensitive) was used. The strain is maintained on MRC‐5SV2 (human lung fibroblast) cells in MEM medium, supplemented with […] L‐glutamine, 16.5 mM NaHCO3, and 5 % heat inactivated fetal calf serum (FCSi). […] The color reaction was read at 540 nm after 4 h, and absorbance values were expressed as a percentage of the blank controls. All cultures and assays are conducted at 37 °C under 5 % CO2.13 Benznidazole was used as a reference compound.

[2] = test system: MRC‐5 cells; test: MRC‐5 cytotoxicity in vitro assay (resazurin); type: cell-based, human; details: for IC50: Homo sapiens, MRC5, 72 h, MRC‐5‐SV2 cytotoxicity, 72 h, SD ±0.2, n>=2, read-out: pIC50 MRC‐5 (converted)
Experimental: MRC‐5 cytotoxicity in vitro assay: MRC‐5‐SV2 cells, originally from a human diploid lung cell line, were cultivated in MEM, supplemented with L‐glutamine (20 mM), 16.5 mM sodium hydrogen carbonate and 5 % FCSi. For the assay, 10^4 cells/well were seeded onto the test plates containing the pre‐diluted sample and incubated at 37 °C and 5 % CO2 for 72 h. Cell viability was assessed fluorometrically 4 h after addition of resazurin (excitation 550 nm, emission 590 nm). The results are expressed as percentage reduction in cell viability compared to untreated controls. Tamoxifen was used as a reference compound.

[3] = test system: intracellular amastigotes of T. cruzi (Tulahuen strain); design: method as in earlier work; details: earlier hit optimization; cited from earlier work
[4] = test system: MRC‐5 cells; design: method as in earlier work; details: earlier hit optimization; cited from earlier work

| Structure (SMILES) | IC50 [1] | SI (selectivity index) [1] | IC50 [2] | pIC50 T. cruzi [3] | pIC50 MRC‐5 [4] | MRC‐5 toxicity at 62 μM ([2]; 62 μM, limit concentration screened) |
| --- | --- | --- | --- | --- | --- | --- |
| COc1ccc(C2=NN(C(C)C)C(=O)C2(C)C)cc1-c1cccnc1 [compound 3, 2‐isopropyl‐5‐(4‐methoxy‐3‐(pyridin‐3‐yl)phenyl)‐4,4‐dimethyl‐2,4‐dihydro‐3H‐pyrazol‐3‐one] | 0.398 µM | 100 | 39.8 µM | 6.4 | 4.4 |  |
| COc1cc(C2=NN(C(C)C)C(=O)C2(C)C)cc(-c2cccnc2)c1 [compound 57] | 7.94 µM | 4 | 31.6 µM |  |  |  |
| COc1cc(C2=NN(C(C)C)C(=O)C2(C)C)cc(-c2cccnc2)c1OC [compound 58] | 50.1 µM | >1 | > 63.1 µM |  |  |  |
| CC(C)N1N=C(c2cc3c(c(-c4cccnc4)c2)OCC3)C(C)(C)C1=O [compound 59, 1‐Isopropyl‐4,4‐dimethyl‐3‐(7‐(pyridin‐3‐yl)‐2,3‐dihydrobenzofuran‐5‐yl)‐1H‐pyrazol‐5(4H)‐one] | 1.58 µM | 16 | 25.1 µM |  |  |  |
| COc1c(Br)cc(C2=NN(C(C)C)C(=O)C2(C)C)cc1-c1cccnc1 [compound 60] | 7.94 µM | 3 | 25.1 µM |  |  |  |
| CC(C)N1N=C(c2cccc(-c3cccnc3)c2)C(C)(C)C1=O [compound 61] | 3.16 µM | 20 | 63.1 µM |  |  |  |
| CC(C)N1N=C(c2ccc(F)c(-c3cccnc3)c2)C(C)(C)C1=O [compound 62] | ~3.16 µM | >10 | > 63.1 µM |  |  |  |
| CC(C)N1N=C(c2ccc(Cl)c(-c3cccnc3)c2)C(C)(C)C1=O [compound 63] | ~3.16 µM | 5 | 15.8 µM |  |  |  |
| Cc1ccc(C2=NN(C(C)C)C(=O)C2(C)C)cc1-c1cccnc1 [compound 64] | ~3.16 µM | >25 | > 63.1 µM |  |  |  |
| COc1ccc(C2=NN(C(C)C)C(=O)C2(C)C)c(F)c1-c1cccnc1 [compound 65] | 2.51 µM | >25 | > 63.1 µM |  |  |  |
| COc1cc(F)c(C2=NN(C(C)C)C(=O)C2(C)C)cc1-c1cccnc1 [compound 66] | 5.01 µM | >13 | > 63.1 µM |  |  |  |
| COc1c(C)cc(C2=NN(C(C)C)C(=O)C2(C)C)cc1-c1cccnc1 [compound 67] | 12.6 µM | >5 | > 63.1 µM |  |  |  |
| COc1cc(C)c(C2=NN(C(C)C)C(=O)C2(C)C)cc1-c1cccnc1 [compound 68] | 31.6 µM | >2 | > 63.1 µM |  |  |  |
| CC(C)N1N=C(c2ccc(C#N)c(-c3cccnc3)c2)C(C)(C)C1=O [compound 74] | 50.1 µM | >1 | > 63.1 µM |  |  |  |
| COc1ccc(C2=NN(C(C)C)C(=O)C23CCCC3)cc1-c1cccnc1 [compound 89] | 6.31 µM |  | 31.6 µM |  |  |  |
| COc1ccc(C2=NN(C(C)C)C(=O)C23CC=CC3)cc1-c1cccnc1 [compound 90] | 7.94 µM |  | 39.8 µM |  |  |  |
| COc1ccc(C2=NN(C(C)C)C(=O)C23CCN(C)CC3)cc1-c1cccnc1 [compound 91] | 31.6 µM | 2 | 50.1 µM |  |  |  |
| COc1ccc(C2=NN(C(C)C)C(=O)C23CCOCC3)cc1-c1cccnc1 [compound 92] | 31.6 µM | 1 | 31.6 µM |  |  |  |

| Structure (SMILES) | IC50 [1] | SI (selectivity index) [1] | IC50 [2] | pIC50 T. cruzi [3] | pIC50 MRC‐5 [4] | MRC‐5 toxicity at 62 μM ([2]; 62 μM, limit concentration screened) |
| --- | --- | --- | --- | --- | --- | --- |
| COc1ccc(-c2cc3n(n2)CCO3)cc1-c1cccnc1 [compound 95] | 31.6 µM | 2 | 50.1 µM |  |  |  |
| COc1ccc(Cc2nnc(N)s2)cc1-c1cccnc1 [compound 98] | > 63.1 µM |  | > 63.1 µM |  |  |  |
| COc1ccc(C2=NN(C(C)C)C(=S)C2(C)C)cc1-c1cccnc1 [compound 99] | 0.501 µM | 32 | 15.8 µM |  |  |  |
| COc1ccc(C2=NN(C(C)C)C(=O)CC2)cc1-c1cccnc1 [compound 104] | 10 µM | 3 | 25.1 µM |  |  |  |
| COc1ccc(C2=Nn3c(C4CC4)nnc3C2(C)C)cc1-c1cccnc1 [compound 109] | 15.8 µM | >4 | > 63.1 µM |  |  |  |
| COc1ccc(-c2nc(C(C)(C)C)co2)cc1-c1cccnc1 [compound 120, 4‐(tert‐Butyl)‐2‐(4‐methoxy‐3‐(pyridin‐3‐yl)phenyl)oxazole] | 2 µM | 3 | < 6.31 µM |  |  |  |
| COc1ccc(-c2nc(-c3ccccc3)co2)cc1-c1cccnc1 [compound 121] | 1 µM | 3 | < 6.31 µM |  |  |  |
| COc1ccc(-c2nc(-c3cccc(F)c3)co2)cc1-c1cccnc1 [compound 122] | 1.26 µM |  |  |  |  |  |
| COc1ccc(-c2nc(-c3ccc(F)cc3)co2)cc1-c1cccnc1 [compound 123] | 0.631 µM | >100 | > 63.1 µM |  |  | no MRC‐5 toxicity |
| COc1ccc(-c2nc(-c3ccccc3)c(C)o2)cc1-c1cccnc1 [compound 124] | 2 µM | 3 | < 6.31 µM |  |  |  |
| COc1ccc(-c2nnc(C(C)C)o2)cc1-c1cccnc1 [compound 132, 2‐Isopropyl‐5‐(4‐methoxy‐3‐(pyridin‐3‐yl)phenyl)‐1,3,4‐oxadiazole] | 20 µM | >3 | > 63.1 µM |  |  |  |
| COc1ccc(-c2nnc(C3CCCC3)o2)cc1-c1cccnc1 [compound 133] | 10 µM | >6 | > 63.1 µM |  |  |  |
| COc1ccc(-c2nnc(CC3CCOCC3)o2)cc1-c1cccnc1 [compound 134] | 25.1 µM | >3 | > 63.1 µM |  |  |  |
| COc1ccc(-c2nnc(-c3ccccc3)o2)cc1-c1cccnc1 [compound 135] | ~1.58 µM | >40 | > 63.1 µM |  |  |  |
| COc1ccc(-c2nnc(-c3cccc(F)c3)o2)cc1-c1cccnc1 [compound 136] | ~1.58 µM | >32 | > 63.1 µM |  |  |  |
| COc1ccc(-c2nc(C3CC3)cs2)cc1-c1cccnc1 [compound 141] | 2.51 µM | 3 | 7.94 µM |  |  |  |
| COc1ccc(-c2nc(-c3ccccc3)cs2)cc1-c1cccnc1 [compound 142] | 2 µM | 1 | 2.51 µM |  |  |  |
